How the values were obtained:
Format in all cases: cell-based
PTGER2 (EP2) = biological target: T1, PTGER2 (EP2) (Homo sapiens, UniProt P43116); experiment: hEP2 b-Arrestin Assay (PathHunter HEK 293 PTGER2 b-arrestin cells, PGE2 5 μM); details: antagonistic activity, beta-arrestin assay, HEK 293 PTGER2 cells, PGE2 5 μM (EC80); read-out: hEP2 b-arr IC50
T1 construct: host or cells: HEK 293 (PathHunter, stably transfected)
Experimental: The antagonistic activities of the compounds of formula (I) on the EP2 and EP4 receptors are also determined in accordance with the following experimental method.
The assay is using the PathHunter™ HEK 293 PTGER2 and PTGER4 b-arrestin cell lines from DiscoverX. The system is based on the Enzyme Fragment Complementation Technology. Two complementing fragments of the b-galactosidase enzyme are expressed within stably transfected cells. The larger portion of b-gal, termed EA for Enzyme Acceptor, is fused to the C-terminus of b-arrestin 2. The smaller fragment, termed ProLink™ tag, is fused to PTGER2 (EP2) or PTRGER4 (EP4) at the C-terminus. Upon activation, b-arrestin is recruited which forces the interaction of ProLink and EA, allowing complementation of the two fragments of b-gal and the formation of a functional enzyme which is capable of hydrolysing the substrate and generating a chemiluminescent signal.
The HEK 293 PTGER2 b-arrestin cells (DiscoverX 93-021-4C1) are detached from culture dishes with a cell dissociation buffer (Invitrogen, 13151-014), and collected in growing medium (GM: DMEM+Glutamax-I (Invitrogen 32430)/10% FCS, 1% Penicilin/streptomycin). 5000 cells per well of a 384 well plate (white with white bottom Greiner 781080) are seeded in 20 μl per well of GM. Plate is incubated at 37° C., 5% CO2 for 24 hours.
Stock solutions of test compounds are made at a concentration of 10 mM in DMSO, and serially diluted in DMSO to concentrations required for inhibition dose response curves (tested concentration range 10 μM-2 nM or 1 μM-0.2 nM).
PGE2 (Cayman 14010, stock solution: 10 mM in DMSO) is used as agonist at 5 μM final concentration, corresponding to EC80.
Five microliters of diluted compounds are transferred into the assay plate. Plate is pre-incubated 15 minutes at 37° C. Then five microliters of PGE2 (final conc. 5 μM) are transferred into the assay plate. Plate is incubated 120 minutes at 37° C.
PathHunter Glo Detection Kit components are thawed and mix according to manufacturer's instructions: 1 part Galacton Star Substrate with 5 parts Emerald II™ Solution, and 19 parts of PathHunter Cell Assay Buffer, respectively. Twelve μl of reagent are transferred to the assay plate and incubate for 1 hour at room temperature in the dark. Luminescence counts are read on a BMG Fluostar Optima reader according to manufacturer's instructions.
For each compound concentration calculate of the percentage of activity compared to DMSO control value as average ±STDEV. (each concentration is measured in duplicate)
IC50 values and curves are generated with XLfit software (IDBS) using Dose-Response One Site model 203. When compounds were measured multiple times, mean values are given.

EP2 = biological target: T2, EP2 (Homo sapiens, UniProt P43116); experiment: hEP2 cAMP Assay (SF295 glioblastoma cells, HTRF cAMP, PGE2 75 nM); details: antagonistic activity, PGE2 75 nM (EC80)
T2 construct: SF295 glioblastoma cells express high endogenous EP2 and no EP4; host or cells: SF295 glioblastoma cells
Outline: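 IC50 values derive from duplicate-point curves of percent cAMP relative to DMSO, read by HTRF (665/620 nm) against a cAMP calibrator. Compounds (30 μM to 0.01 nM ranges) were given 45 min at room temperature before 30 min with 75 nM PGE2, in EP2-only SF295 cells with 2 mM IBMX.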

EP4 = biological target: T3, EP4 (Homo sapiens, UniProt P35408); experiment: hEP4 cAMP Assay (BT549 breast cancer cells, HTRF cAMP, PGE2 6 nM); details: antagonistic activity, PGE2 6 nM (EC80)
T3 construct: BT549 breast cancer cells, express high endogenous EP4 levels and very low EP2 levels; host or cells: BT549 breast cancer cells
Outline: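 BT549 cells (endogenous EP4, very low EP2) in HBSS/20 mM HEPES/0.2% BSA/2 mM IBMX, pre-incubated 45 min RT with compound, then stimulated 30 min RT with PGE2 6 nM (EC80). cAMP read by HTRF competitive immunoassay (665/620 nm), converted via calibrator to % of DMSO control; IC50 from duplicate dose-response curves.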

T3 sequence (P35408 whole entry): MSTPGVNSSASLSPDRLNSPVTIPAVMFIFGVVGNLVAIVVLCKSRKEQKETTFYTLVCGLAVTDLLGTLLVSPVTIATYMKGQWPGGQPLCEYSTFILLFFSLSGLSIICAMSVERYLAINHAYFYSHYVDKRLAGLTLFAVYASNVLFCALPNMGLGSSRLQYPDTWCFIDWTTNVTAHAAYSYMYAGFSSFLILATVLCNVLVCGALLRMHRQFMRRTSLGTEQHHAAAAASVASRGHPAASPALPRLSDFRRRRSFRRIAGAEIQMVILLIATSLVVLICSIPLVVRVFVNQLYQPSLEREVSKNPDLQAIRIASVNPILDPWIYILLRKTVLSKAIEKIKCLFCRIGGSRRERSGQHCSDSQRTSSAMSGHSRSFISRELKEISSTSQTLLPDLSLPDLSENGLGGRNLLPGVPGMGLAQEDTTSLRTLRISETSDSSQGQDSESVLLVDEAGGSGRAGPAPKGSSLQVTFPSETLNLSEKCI
T1 sequence (P43116 whole entry): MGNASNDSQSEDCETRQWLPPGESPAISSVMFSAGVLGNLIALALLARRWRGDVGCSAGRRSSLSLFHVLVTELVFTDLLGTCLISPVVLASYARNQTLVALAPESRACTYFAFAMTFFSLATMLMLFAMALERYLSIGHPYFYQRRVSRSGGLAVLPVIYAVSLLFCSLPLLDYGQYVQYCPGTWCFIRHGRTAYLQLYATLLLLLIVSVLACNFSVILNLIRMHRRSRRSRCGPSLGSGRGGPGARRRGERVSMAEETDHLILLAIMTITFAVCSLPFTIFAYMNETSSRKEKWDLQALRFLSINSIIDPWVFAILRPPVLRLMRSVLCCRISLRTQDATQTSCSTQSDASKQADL
T2 sequence (P43116 whole entry): as above

SMILES	IC50 (PTGER2 (EP2)) [nM]	IC50 (EP2) [nM]	IC50 (EP4) [nM]
O=C(O)c1ccc(-c2cc(NCCc3cccc4sccc34)ncn2)cc1OC1CCC1 [Example 107, 4-[6-(2-Benzo[b]thiophen-4-yl-ethylamino)-pyrimidin-4-yl]-2-cyclobutoxy-benzoic acid]	149	250	267
CCOc1cc(-c2cc(NCCc3c(C(F)F)ccc4ccccc34)ncn2)sc1C(=O)O [Example 70, 5-{6-[2-(2-Difluoromethyl-naphthalen-1-yl)-ethylamino]-pyrimidin-4-yl}-3-ethoxy-thiophene-2-carboxylic acid]	78	163	368
COc1ccc2c(C)ccnc2c1CCNc1cc(-c2ccc(C(=O)O)c(OC3CCC3)c2)ncn1 [Example 87, 2-Cyclobutoxy-4-{6-[2-(7-methoxy-4-methyl-quinolin-8-yl)-ethylamino]-pyrimidin-4-(C)yl}-benzoic acid]	70	103	850
COc1cc(-c2cc(NCCc3c(OC)ccc4ncccc34)ncn2)sc1C1(O)COC1 [Example 89, 3-(3-Methoxy-5-{6-[2-(6-methoxy-quinolin-5-yl)-ethylamino]-pyrimidin-4-yl}-thiophen-2-yl)-oxetan-3-ol]	178	197	878
CCOc1cc(-c2cc(NCCc3c(OC)ccc4ncccc34)ncn2)ccc1OCC(=O)O [Example 66, (2-Ethoxy-4-{6-[2-(6-methoxy-quinolin-5-yl)-ethylamino]-pyrimidin-4-yl}-phenoxy)-acetic acid]	350	227	714
CCOc1cc(-c2cc(NCCc3cccc4ccsc34)ncn2)ccc1C(=O)O [Example 101, 4-[6-(2-Benzo[b]thiophen-7-yl-ethylamino)-pyrimidin-4-yl]-2-ethoxy-benzoic acid]	128	129	619
CCCCOc1cc(-c2cc(NCCc3c(OC)ccc4ccccc34)ncn2)cc(F)c1C(=O)O [Example 124, 2-Butoxy-6-fluoro-4-{6-[2-(2-methoxy-naphthalen-1-yl)-ethylamino]-pyrimidin-4-yl}-benzoic acid]	35	100	446
COc1ccc2ncccc2c1CCNc1cc(-c2ccc(-c3cc(O)no3)cc2)ncn1 [Example 83, 5-(4-{6-[2-(6-Methoxy-quinolin-5-yl)-ethylamino]-pyrimidin-4-yl}-phenyl)-isoxazol-3-ol]	119	89	428

Further lines, results first:

IC50 (PTGER2 (EP2)) [nM]	IC50 (EP2) [nM]	IC50 (EP4) [nM]	SMILES
22	67	909	CCOc1cc(-c2cc(NCCc3c(Br)ccc4ccccc34)ncn2)ccc1C(=O)O [Example 7, 4-{6-[2-(2-Bromo-naphthalen-1-yl)-ethylamino]-pyrimidin-4-yl}-2-ethoxy-benzoic acid]
22	147	729	CCOc1cc(-c2cc(NCCc3c(C)ccc4ccccc34)ncn2)ccc1OCC(=O)O [Example 48, (2-Ethoxy-4-{6-[2-(2-methyl-naphthalen-1-yl)-ethylamino]-pyrimidin-4-yl}-phenoxy)-acetic acid]
17	11	292	CCOc1cc(-c2cc(NCCc3c(OC)ccc4ccccc34)ncn2)ccc1C(=O)O [Example 3, 2-Ethoxy-4-{6-[2-(2-methoxy-naphthalen-1-yl)-ethylamino]-pyrimidin-4-yl}-benzoic acid]
45	123	654	CCOc1cc(-c2cc(NCCc3c(OC)ccc4ccccc34)ncn2)ccc1OCC(=O)O [Example 47, (2-Ethoxy-4-{6-[2-(2-methoxy-naphthalen-1-yl)-ethylamino]-pyrimidin-4-yl}-phenoxy)-acetic acid]
36	58	351	CCOc1cc(-c2cc(NCCc3c(OC)ccc4ncccc34)ncn2)ccc1O [Example 90, 2-Ethoxy-4-{6-[2-(6-methoxy-quinolin-5-yl)-ethylamino]-pyrimidin-4-yl}-phenol]

Reference: US11446298B2, “Pyrimidine derivatives” (Idorsia Pharmaceuticals Ltd, priority 2017, dated 2022)
